Measured values published in BigSolDB 2.1.

Cc1cnc(NC(=O)C2=C(O)c3ccccc3S(=O)(=O)N2C)s1
solubility (mole fraction)
Settings | 293.15 K | 298.15 K | 303.15 K | 308.15 K | 313.15 K
in DMF | 0.0117 | 0.0128 | 0.0139 | 0.0153 | 0.0163
in formamide | 0.00069 | 0.000749 | 0.000802 | 0.000872 | 0.000927
in n-methylformamide | 0.00149 | 0.00159 | 0.00169 | 0.00182 | 0.00191
